How the values were obtained:
[1] = Concentration of the nanosuspension and appearance / physical stability; format: physicochemical
Experimental: (§1) A solution of TCO (1 mg) in hexafluoroisopropanol (HFIP) (0.5 mL) was prepared and added slowly into a magnetically stirred into phosphate buffered saline (PBS) (2 mL) having a pH of 7.4. The mixture was stirred uncovered in a fume hood for up to 24 hours. FIG. 1 illustrates the particle size distribution of suspension of TCO in pH 7.4 PBS at 0.5 mg/mL concentration. […] The clear nanoparticle suspension was further concentrated in a vacuum oven to about 1.5 mg/mL.
A solution of TCO (1 mg) in hexafluoroisopropanol (0.5 mL) was prepared and added slowly into a magnetically stirred deionized water (2 mL). The mixture was stirred uncovered in a fume hood for 3 hours and further concentrated in a vacuum oven. The nanoparticle suspension in deionized water, however, could only be concentrated to about 0.6 mg/mL of concentration before growing micron-sized crystals.

[2] = Particle size distribution of the nanoparticle suspension (Beckman Coulter PCS Submicron Particle Size Analyzer); format: physicochemical; conditions: suspension of TCO in PBS pH 7.4, 0.5 mg/mL (FIG. 1)
Experimental: The particle size of the pharmaceutically active compound in the nanosuspension may be in the range of 100 nm to 1000 nm, including all values and increments therein, such as in the range of 250 nm to 1,000 nm, etc. Illustrated in FIG. 1 is an exemplary embodiment of a numerical particle size distribution of suspension of TCO in PBS having a pH of 7.4 and at a concentration of 0.5 mg/mL. […] In addition, the highest relative number percent of particles fall in the range of about 450-525 nm. Such particle size determination may be accomplished on a Beckman Coulter PCS Submicron Particle Size Analyzer. Accordingly, a nanosuspension herein may be understood as any liquid medium containing pharmaceutically active compounds having particles with a size of less than or equal to about 1000 nm.
as §1

triamcinolone [TCO]
appearance of nanosuspension ([1]; 1.0 mg/ML, precipitating 2 mg/0.5 mL TCO/HFIP into 2 mL PBS): cloudy solution | concentration to which the clear nanoparticle suspension was further concentrated ([1]; PBS pH 7.4, 1 mg TCO/0.5 mL HFIP into 2 mL PBS, vacuum oven): about 1.5 mg/mL | concentration reached before growing micron-sized crystals ([1]; deionized water, 1 mg TCO/0.5 mL HFIP into 2 mL water, vacuum oven): about 0.6 mg/mL | particle size range with the highest relative number percent of particles [2]: 450-525 nm

Reference: patent US8946200B2, “Pharmaceutically active nanosuspensions” (Southwest Research Institute, priority 2006, dated 2015)
